Measured values reported in PMC2882332, “Species Used for Drug Testing Reveal Different Inhibition Susceptibility for 17beta-Hydroxysteroid Dehydrogenase Type 1” (PLoS ONE, 2010).
Read-outs that look alike come from different tables or passages of the source.

Experiments:
[1] = target: T1, human 17β-HSD 5 (AKR1C3) (Homo sapiens, UniProt P42330); assay: In vitro enzymatic activity, recombinant human 17β-HSD 5 (androstenedione reduction); assay type: biochemical; details: 2 µM compound, 21 nM 3H-androstenedione, NADPH, pH 6.6
T1 construct: made in house; host or cells: E.coli BL21 DE3 Codon Plus RP
T1 sequence (P42330 1-323): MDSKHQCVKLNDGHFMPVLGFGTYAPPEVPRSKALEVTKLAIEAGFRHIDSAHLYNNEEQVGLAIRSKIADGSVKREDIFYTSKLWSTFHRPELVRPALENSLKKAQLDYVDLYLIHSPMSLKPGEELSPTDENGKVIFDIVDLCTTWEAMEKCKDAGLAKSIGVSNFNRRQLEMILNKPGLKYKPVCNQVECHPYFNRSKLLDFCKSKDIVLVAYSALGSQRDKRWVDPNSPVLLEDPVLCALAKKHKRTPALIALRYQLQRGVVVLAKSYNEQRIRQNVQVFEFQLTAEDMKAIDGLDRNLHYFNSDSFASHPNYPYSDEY
Excerpt: (§1) Full length cDNAs of several 17β-HSDs type 1 originating from different species were cloned either into the pQE30 vector (human 17β-HSD 1, coding for acc. no. NP_000404) for expression as His-Tag protein or into a modified pGex-2T vector [63] (mouse 17β-HSD 1, acc. no. NP_034605; rat 17β-HSD 1, acc. no. NP_036983; marmoset 17β-HSD 1, acc. no. AAG01115; porcine 17β-HSD 1, acc. no. NP_001121944) for expression as GST-fusion proteins. The marmoset 17β-HSD 1 enzyme sequence was updated by the missing N-terminal part (AF272013) and the new porcine sequence was submitted to GenBank (NP_001121944). Human 17β-HSDs 2, 4, 5 (AKR1C3, the latter kindly provided by Dr. T. Penning) and 7 were all cloned into the modified pGEX-2T vector. For 17β-HSD 4 only the SDR-domain converting the steroids was subcloned. Plasmids were transformed into E.coli BL21 DE3 Codon Plus RP (Stratagene) and enzyme expression was induced by 0.5 mM IPTG. After 4h incubation at 37°C with continuous shaking bacteria were pelleted by centrifugation at 10.000×g. Pellets were stored until use at −20°C.
(§2) The bacteria containing recombinant enzymes were resuspended in PBS and enzymatic assays were performed in 100 mM sodium phosphate buffer at pH 6.6 for the reductive reaction and at pH 7.7 for the oxidative reaction. […] All substrates were purchased from NEN/Perkin Elmer. The cofactors NADPH (Sigma; for reductive reactions) and NAD^+ (Serva, for oxidative reactions) were used at final concentrations of 0.5 mg/ml. […] The incubation at 37°C was stopped with 0.21 M ascorbic acid in methanol∶acetic acid 99∶1 (v∶v) after the time needed to convert approximately 30% of the substrate in a control assay with 1% DMSO, without inhibitor candidates. […] The solvent used was acetonitrile∶water (43∶57, v∶v) at a flow rate of 1 ml/min. Radioactivity was detected by online-scintillation counting (Berthold LB506D) after mixing with ReadyFlowIII (Beckman). Conversion was calculated from integration of substrate and product peaks. […] All assays were run in duplicates of two independent experiments and mean values are reported. The IC50 values were determined by the One Ligand Binding model of SigmaPlot kinetics module.

[2] = target: T2, marmoset 17β-HSD 1 (Callithrix jacchus, UniProt Q9GME2); assay: In vitro enzymatic activity, recombinant marmoset 17β-HSD 1; assay type: biochemical; details: for inhibition at 2 µM: marmoset 17β-HSD 1, 2 µM compound, 15 nM 3H-estrone, read-out: Observed % inhibition
T2 sequence (Q9GME2 1-314): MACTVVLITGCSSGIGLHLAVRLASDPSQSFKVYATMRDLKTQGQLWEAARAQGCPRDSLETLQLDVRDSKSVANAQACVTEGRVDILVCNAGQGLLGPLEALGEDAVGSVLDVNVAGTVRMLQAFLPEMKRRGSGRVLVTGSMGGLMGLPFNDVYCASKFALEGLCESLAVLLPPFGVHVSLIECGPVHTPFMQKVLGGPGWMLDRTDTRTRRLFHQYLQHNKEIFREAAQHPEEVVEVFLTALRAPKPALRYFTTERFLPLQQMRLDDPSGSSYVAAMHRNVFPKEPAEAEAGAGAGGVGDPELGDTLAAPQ
Excerpt: as §1, §2

[3] = target: T3, porcine 17β-HSD 1 (Sus scrofa, UniProt B2X0A4); assay: In vitro enzymatic activity, recombinant porcine 17β-HSD 1; assay type: biochemical, pig; details: for IC50: Pig 17β-HSD 1, 0.005 µM to 5 µM inhibitor; for inhibition at 2 µM: read-out: Observed % inhibition
T3 sequence (B2X0A4 1-321): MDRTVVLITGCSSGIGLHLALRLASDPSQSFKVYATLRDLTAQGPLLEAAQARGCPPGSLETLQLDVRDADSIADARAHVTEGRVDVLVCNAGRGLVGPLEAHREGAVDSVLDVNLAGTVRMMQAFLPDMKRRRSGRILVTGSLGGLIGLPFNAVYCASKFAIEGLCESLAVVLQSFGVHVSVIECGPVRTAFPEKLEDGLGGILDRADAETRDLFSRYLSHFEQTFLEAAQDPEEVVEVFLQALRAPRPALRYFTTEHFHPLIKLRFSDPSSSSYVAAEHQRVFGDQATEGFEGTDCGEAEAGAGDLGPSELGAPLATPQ
Excerpt: as §1, §2

[4] = target: T4, human 17β-HSD 2 (Homo sapiens, UniProt P37059); assay: In vitro enzymatic activity, recombinant human 17β-HSD 2 (estradiol oxidation); assay type: biochemical; details: 2 µM compound, 21 nM 3H-estradiol, NAD+, pH 7.7, read-out: Observed % inhibition
T4 construct: made in house; host or cells: E.coli BL21 DE3 Codon Plus RP
T4 sequence (P37059 1-387): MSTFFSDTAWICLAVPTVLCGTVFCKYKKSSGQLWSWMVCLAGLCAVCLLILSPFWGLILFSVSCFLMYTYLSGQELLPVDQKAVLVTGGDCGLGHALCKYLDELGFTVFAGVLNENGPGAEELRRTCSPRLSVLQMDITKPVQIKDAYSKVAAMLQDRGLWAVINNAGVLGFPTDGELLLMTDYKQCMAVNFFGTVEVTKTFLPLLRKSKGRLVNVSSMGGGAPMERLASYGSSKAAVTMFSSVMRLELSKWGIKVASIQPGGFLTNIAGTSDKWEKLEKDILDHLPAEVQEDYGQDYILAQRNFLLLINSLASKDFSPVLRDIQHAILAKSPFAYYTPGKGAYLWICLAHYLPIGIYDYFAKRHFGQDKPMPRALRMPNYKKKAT
Excerpt: as §1, §2

[5] = pig 17β-HSD 1, 2 µM compound, 15 nM 3H-estrone

SMILES	Observed % inhibition [1]	inhibition at 2 µM [2]	IC50 [3]	inhibition at 2 µM [3, 5]	inhibition at 2 µM [4]	inhibition at 2 µM [3]	IC50 [2]
C[C@]12CC[C@@H]3c4ccc(O)cc4CC[C@H]3[C@@H]1[C@@H](CCCC(=O)N1CCOCC1)CC2=O [Compound 2]	33.9%	60.3%	457 nM	67%	16.7%	–	–
COc1ccc(-c2cn(CCC[C@H]3CC(=O)[C@@]4(C)CC[C@@H]5c6ccc(O)cc6CC[C@H]5[C@H]34)nn2)cc1 [Compound 4]	93.5%	85.2%	–	–	-0.3%	66.2%	–
C[C@]12CC[C@@H]3c4ccc(O)cc4CC[C@H]3[C@@H]1[C@@H](CNC(=O)c1ccc(F)cc1)CC2=O [Compound 1]	21.6%	30.6%	–	–	-4.3%	–	–
Cc1cnc(NC(=O)CC[C@@H]2CC(=O)[C@@]3(C)CC[C@@H]4c5ccc(O)cc5CC[C@H]4[C@H]23)s1 [Compound 3]	29.3%	98.5%	0.34 nM	105%	18.6%	–	95.3 nM
C[C@]12CC[C@@H]3c4ccc(O)cc4CC[C@H]3[C@@H]1C[C@H](CC(=O)NCc1cccnc1)C2=O [Compound 5, reference compound]	50.6%	45.6%	–	95.7%	-3.2%	–	–
